# Measured values reported in ChEMBL document CHEMBL1201862, “PubChem BioAssay data set” (2004).
# The source made the active and inactive calls.
# Tests used:
# [1] = target: Glycogen synthase kinase-3 alpha (Homo sapiens, UniProt P49840); experiment: Inhibition of Human GSK-3 alpha Activity Measured in Biochemical System Using Microfluidics - 2063-06_Inhibitor_Dose_DryPowder_Activity. [Related pubchem assays (depositor defined):AID2709]
# [2] = target: Glycogen synthase kinase-3 beta (Homo sapiens, UniProt P49841); experiment: Inhibition of Human GSK-3 beta Activity Measured in Biochemical System Using Microfluidics - 2063-05_Inhibitor_Dose_DryPowder_Activity. [Related pubchem assays (depositor defined):AID2709]
# [3] = target: T1, Carboxy-terminal domain RNA polymerase II polypeptide A small phosphatase 1 (Homo sapiens, UniProt Q9GZU7); experiment: CTDSP1 inhibitors, concentration-response, biochemical, absorbance readout, ultra-high-throughput screen actives (AID 540297); assay type: functional
# T1 sequence (Q9GZU7 whole entry): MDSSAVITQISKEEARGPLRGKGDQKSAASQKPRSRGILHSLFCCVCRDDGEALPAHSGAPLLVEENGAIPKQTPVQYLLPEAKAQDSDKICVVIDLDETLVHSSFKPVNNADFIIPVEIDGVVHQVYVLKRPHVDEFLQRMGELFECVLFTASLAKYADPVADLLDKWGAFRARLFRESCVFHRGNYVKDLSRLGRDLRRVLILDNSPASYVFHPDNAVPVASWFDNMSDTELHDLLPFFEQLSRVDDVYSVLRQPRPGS
# [4] = target: DNA (cytosine-5)-methyltransferase 1 (Homo sapiens, UniProt P26358); experiment: inhibition of DNA methylation by DNMT1 – biochemical, fluorescent molecular beacon, confirmation (AID 602386); assay type: functional
# [5] = target: T2, Beta-adrenergic receptor kinase 1 (Homo sapiens, UniProt P25098); experiment: aptamer displacement from bead-bound GRK2 – biochemical, cherry pick 1, bead flow cytometry, dose response (AID 504500)
# [6] = target: T2, Beta-adrenergic receptor kinase 1; experiment: blockers of aptamer binding to GRK2 – biochemical, flow cytometry beads, FAM-aptamer, powder set 1, dose response (AID 588720)
# CHO = CHO cell viability loss, potency – luminescence, cytotoxicity control for TLR9-MyD88 binding inhibitor project, dose response (AID 588339); assay type: functional, cell-based, hamster; settings: Cricetulus griseus;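 also: CHO cells stably coexpressing TLR9 and MyD88 fusions from primary screen; compound exposure lasted 48 hours before viability readout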
# INS1 [7] = experiment: suppression of NO production in INS-1E cells – cell-based, Griess absorbance, dry powder, set 2, dose response (AID 488868); assay type: functional; settings: Rattus norvegicus
# INS1 [8] = experiment: beta-cell survival under cytokine stress – INS-1E, ATP luminescence, dry powder, dose response (AID 488844); assay type: functional, cell-based; settings: Rattus norvegicus
# [9] = suppression of NO production in INS-1E cells – cell-based, Griess absorbance, dry powder, set 3, dose response (AID 488870); assay type: functional; settings: Rattus norvegicus
# INS1 [10] = experiment: INS-1E mitochondrial potential loss inhibitors – cell-based, JC-1 fluorescence, dry powder, set 2, dose response (AID 488867); assay type: functional; settings: Rattus norvegicus
# DNA topoisomerase = DNA topoisomerase (Yersinia pestis, UniProt A0A2S9PM60); experiment: Yersinia topoisomerase I cleavage product accumulation – biochemical, cherry-pick, dose response (AID 588525)
# Caspase-3 = target: T3, Caspase-3 (Homo sapiens, UniProt P42574); experiment: SAR Analysis of small molecule inhibitors of Sentrin-specific proteases (SENPs) using a Caspase-3 Selectivity assay. [Related pubchem assays (depositor defined):AID2540, AID2599, AID434973, AID489001]; assay type: functional
# T3 sequence (P42574 whole entry): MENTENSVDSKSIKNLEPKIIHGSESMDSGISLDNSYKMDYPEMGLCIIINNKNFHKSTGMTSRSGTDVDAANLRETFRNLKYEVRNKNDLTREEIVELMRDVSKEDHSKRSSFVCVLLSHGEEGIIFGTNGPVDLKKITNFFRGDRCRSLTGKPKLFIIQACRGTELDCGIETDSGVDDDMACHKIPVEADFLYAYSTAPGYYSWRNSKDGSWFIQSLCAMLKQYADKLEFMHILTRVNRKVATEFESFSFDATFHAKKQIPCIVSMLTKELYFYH
# [11] = target: T4, Sentrin-specific protease 8 (Homo sapiens, UniProt Q96LD8); experiment: inhibition of human SENP8 cleavage activity – biochemical, luminescence, SAR follow-up (AID 504501); assay type: functional
# T4 sequence (Q96LD8 whole entry): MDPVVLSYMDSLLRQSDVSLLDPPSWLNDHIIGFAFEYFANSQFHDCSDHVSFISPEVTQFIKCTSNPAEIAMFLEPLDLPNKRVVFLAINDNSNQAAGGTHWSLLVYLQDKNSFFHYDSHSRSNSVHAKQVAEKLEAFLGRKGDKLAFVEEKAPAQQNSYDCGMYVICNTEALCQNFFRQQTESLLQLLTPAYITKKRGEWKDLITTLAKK
# [12] = target: T5, Sentrin-specific protease 7 (Homo sapiens, UniProt Q9BQF6); experiment: inhibition of human SENP7 cleavage activity – biochemical, luminescence, SAR follow-up (AID 504497); assay type: functional
# T5 sequence (Q9BQF6 whole entry): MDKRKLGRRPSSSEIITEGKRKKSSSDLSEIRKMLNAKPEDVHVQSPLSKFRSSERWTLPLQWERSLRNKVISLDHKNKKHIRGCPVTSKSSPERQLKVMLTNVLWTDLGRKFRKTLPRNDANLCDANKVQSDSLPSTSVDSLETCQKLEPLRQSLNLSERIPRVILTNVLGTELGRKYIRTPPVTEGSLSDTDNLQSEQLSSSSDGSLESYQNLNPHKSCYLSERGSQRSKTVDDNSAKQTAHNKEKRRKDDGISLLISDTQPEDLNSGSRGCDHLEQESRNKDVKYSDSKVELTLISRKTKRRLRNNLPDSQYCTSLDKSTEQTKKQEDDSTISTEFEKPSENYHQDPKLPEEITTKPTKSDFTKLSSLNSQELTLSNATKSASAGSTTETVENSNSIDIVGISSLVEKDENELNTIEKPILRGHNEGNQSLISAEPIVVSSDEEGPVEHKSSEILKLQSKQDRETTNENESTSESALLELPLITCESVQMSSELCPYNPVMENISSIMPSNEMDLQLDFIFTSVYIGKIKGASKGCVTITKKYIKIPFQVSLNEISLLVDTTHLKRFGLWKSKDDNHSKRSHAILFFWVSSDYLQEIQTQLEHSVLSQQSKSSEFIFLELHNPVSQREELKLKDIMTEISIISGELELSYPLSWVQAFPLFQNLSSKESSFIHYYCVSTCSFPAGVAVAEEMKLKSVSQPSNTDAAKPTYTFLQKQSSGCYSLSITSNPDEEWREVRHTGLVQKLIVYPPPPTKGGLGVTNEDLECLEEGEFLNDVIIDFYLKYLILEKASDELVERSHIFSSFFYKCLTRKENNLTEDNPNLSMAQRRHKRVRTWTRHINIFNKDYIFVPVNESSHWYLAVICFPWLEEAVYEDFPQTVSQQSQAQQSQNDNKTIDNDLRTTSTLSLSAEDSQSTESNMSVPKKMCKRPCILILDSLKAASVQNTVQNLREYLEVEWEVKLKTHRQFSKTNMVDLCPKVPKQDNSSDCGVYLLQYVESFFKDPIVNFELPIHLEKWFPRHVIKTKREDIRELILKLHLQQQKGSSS
# [13] = target: T5, Sentrin-specific protease 7; experiment: inhibition of human SENP7 cleavage activity – biochemical, luminescence, set 2, SAR follow-up (AID 588600); assay type: functional
# [14] = target: T4, Sentrin-specific protease 8; experiment: inhibition of sentrin protease 8 – biochemical, luminescence, set 2, SAR follow-up (AID 588601); assay type: functional
# [15] = target: T6, Sentrin-specific protease 6 (Homo sapiens, UniProt Q9GZR1); experiment: SAR Analysis of small molecule inhibitors of Sentrin-specific protease 6 (SENP6) using a Luminescent assay. [Related pubchem assays (depositor defined):AID2582, AID2599]; assay type: functional
# T6 sequence (Q9GZR1 whole entry): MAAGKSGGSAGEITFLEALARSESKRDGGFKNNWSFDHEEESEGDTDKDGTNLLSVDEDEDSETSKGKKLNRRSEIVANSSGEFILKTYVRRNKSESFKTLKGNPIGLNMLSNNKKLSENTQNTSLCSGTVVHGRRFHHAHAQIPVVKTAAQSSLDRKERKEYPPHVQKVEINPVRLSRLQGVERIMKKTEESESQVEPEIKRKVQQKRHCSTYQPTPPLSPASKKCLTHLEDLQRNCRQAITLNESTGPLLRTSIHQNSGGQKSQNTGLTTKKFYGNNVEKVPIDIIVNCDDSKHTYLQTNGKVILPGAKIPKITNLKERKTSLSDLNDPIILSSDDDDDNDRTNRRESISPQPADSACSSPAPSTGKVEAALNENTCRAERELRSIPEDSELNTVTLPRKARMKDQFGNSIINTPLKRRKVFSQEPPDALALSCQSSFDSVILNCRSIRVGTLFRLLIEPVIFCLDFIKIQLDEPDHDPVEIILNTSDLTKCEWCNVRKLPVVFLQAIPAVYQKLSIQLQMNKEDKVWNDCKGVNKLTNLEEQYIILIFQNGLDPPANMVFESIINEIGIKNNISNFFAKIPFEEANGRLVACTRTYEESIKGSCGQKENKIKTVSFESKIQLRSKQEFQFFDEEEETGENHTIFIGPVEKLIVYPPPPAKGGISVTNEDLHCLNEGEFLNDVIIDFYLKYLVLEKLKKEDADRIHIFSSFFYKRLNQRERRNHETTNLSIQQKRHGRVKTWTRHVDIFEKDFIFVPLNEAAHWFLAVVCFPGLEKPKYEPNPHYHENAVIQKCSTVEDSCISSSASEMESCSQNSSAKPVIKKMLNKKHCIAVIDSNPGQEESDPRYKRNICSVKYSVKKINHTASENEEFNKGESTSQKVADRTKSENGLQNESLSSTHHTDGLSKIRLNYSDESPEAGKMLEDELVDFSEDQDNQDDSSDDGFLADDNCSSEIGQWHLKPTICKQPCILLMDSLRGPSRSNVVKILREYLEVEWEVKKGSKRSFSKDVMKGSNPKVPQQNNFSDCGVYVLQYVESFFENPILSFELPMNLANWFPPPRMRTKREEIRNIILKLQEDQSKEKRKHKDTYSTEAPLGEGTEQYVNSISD
# [16] = target: DNA dC->dU-editing enzyme APOBEC-3G (Homo sapiens, UniProt Q9HC16); experiment: inhibition of APOBEC3G ssDNA deamination – biochemical, fluorescence, single-stranded DNA substrate, SAR follow-up (AID 602136); assay type: functional; settings: read-out: IC50_Mean
# [17] = target: DNA dC->dU-editing enzyme APOBEC-3A (Homo sapiens, UniProt P31941); experiment: SAR analysis of small molecule inhibitors of APOBEC3A DNA Deaminase via a fluorescence-based single-stranded DNA deaminase assay.; assay type: functional; settings: read-out: IC50_Mean
# [18] = THP-1 cell cytotoxicity, cytotoxicity control, set 4 (AID 504911); assay type: functional; settings: Mycobacterium tuberculosis
# [19] = THP-1 cell cytotoxicity, dose response, cytotoxicity control, set 3 (AID 504852); assay type: functional; settings: Mycobacterium tuberculosis
# [20] = Vero cell cytotoxicity, dose response, cytotoxicity control for M. tuberculosis growth inhibitor project, Vero cells, purified and synthesized compounds, set 4 (AID 504854); assay type: functional; settings: Mycobacterium tuberculosis
# [21] = target: Voltage-gated inwardly rectifying potassium channel KCNH2 (Homo sapiens, UniProt Q12809); settings: Potency;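 also: confirmatory quantitative high-throughput screen measuring inhibition of hERG channel activity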
# Chain of Voltage-gated inwardly rectifying potassium channel KCNH2 (Q12809 whole entry): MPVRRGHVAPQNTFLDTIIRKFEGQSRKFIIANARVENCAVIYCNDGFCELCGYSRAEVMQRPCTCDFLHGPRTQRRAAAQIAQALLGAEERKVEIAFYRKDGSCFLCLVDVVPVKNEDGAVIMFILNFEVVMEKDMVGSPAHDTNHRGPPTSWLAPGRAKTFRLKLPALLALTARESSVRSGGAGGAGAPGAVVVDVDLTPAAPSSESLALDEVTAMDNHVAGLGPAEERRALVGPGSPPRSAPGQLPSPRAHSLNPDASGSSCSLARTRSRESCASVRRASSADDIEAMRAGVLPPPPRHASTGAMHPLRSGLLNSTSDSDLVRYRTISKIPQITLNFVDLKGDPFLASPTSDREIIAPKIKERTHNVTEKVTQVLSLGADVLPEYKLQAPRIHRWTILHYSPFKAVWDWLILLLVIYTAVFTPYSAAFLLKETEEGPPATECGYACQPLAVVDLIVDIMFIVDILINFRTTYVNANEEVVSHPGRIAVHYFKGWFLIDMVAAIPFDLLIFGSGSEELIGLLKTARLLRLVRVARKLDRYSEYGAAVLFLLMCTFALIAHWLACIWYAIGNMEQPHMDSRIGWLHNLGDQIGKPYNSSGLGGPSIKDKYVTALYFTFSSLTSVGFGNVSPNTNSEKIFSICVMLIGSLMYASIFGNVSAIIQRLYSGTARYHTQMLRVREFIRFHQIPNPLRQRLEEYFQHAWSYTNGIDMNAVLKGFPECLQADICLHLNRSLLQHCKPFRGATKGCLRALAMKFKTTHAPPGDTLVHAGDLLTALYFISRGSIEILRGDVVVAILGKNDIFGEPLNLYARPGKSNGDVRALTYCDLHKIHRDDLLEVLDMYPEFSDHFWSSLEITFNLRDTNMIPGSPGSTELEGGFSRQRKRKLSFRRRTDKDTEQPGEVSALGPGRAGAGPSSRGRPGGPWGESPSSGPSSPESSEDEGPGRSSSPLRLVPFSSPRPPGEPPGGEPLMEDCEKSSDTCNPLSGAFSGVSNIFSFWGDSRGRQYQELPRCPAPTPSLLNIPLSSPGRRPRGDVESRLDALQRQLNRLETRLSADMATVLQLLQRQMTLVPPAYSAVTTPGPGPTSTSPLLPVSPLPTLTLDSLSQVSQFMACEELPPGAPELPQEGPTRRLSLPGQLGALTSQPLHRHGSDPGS
# T2 sequence (P25098 whole entry): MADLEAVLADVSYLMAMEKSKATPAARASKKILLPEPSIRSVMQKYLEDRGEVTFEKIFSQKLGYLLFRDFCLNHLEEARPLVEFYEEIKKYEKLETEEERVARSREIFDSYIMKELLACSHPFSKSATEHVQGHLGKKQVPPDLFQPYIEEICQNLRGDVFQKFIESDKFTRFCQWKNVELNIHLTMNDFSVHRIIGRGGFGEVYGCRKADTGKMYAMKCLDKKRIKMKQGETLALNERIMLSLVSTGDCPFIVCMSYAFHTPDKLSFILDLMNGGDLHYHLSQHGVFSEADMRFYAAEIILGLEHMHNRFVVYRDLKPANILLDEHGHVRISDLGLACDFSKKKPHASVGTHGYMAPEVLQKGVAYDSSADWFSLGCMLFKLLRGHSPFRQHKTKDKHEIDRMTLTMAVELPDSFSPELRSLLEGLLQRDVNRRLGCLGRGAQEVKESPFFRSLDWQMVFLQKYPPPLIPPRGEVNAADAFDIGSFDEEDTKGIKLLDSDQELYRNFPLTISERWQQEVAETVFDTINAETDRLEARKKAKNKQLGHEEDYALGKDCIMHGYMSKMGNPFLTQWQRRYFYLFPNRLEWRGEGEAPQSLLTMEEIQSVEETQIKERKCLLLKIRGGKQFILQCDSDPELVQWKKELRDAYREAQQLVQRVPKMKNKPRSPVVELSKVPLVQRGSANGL
# Chain of DNA (cytosine-5)-methyltransferase 1 (P26358 whole entry): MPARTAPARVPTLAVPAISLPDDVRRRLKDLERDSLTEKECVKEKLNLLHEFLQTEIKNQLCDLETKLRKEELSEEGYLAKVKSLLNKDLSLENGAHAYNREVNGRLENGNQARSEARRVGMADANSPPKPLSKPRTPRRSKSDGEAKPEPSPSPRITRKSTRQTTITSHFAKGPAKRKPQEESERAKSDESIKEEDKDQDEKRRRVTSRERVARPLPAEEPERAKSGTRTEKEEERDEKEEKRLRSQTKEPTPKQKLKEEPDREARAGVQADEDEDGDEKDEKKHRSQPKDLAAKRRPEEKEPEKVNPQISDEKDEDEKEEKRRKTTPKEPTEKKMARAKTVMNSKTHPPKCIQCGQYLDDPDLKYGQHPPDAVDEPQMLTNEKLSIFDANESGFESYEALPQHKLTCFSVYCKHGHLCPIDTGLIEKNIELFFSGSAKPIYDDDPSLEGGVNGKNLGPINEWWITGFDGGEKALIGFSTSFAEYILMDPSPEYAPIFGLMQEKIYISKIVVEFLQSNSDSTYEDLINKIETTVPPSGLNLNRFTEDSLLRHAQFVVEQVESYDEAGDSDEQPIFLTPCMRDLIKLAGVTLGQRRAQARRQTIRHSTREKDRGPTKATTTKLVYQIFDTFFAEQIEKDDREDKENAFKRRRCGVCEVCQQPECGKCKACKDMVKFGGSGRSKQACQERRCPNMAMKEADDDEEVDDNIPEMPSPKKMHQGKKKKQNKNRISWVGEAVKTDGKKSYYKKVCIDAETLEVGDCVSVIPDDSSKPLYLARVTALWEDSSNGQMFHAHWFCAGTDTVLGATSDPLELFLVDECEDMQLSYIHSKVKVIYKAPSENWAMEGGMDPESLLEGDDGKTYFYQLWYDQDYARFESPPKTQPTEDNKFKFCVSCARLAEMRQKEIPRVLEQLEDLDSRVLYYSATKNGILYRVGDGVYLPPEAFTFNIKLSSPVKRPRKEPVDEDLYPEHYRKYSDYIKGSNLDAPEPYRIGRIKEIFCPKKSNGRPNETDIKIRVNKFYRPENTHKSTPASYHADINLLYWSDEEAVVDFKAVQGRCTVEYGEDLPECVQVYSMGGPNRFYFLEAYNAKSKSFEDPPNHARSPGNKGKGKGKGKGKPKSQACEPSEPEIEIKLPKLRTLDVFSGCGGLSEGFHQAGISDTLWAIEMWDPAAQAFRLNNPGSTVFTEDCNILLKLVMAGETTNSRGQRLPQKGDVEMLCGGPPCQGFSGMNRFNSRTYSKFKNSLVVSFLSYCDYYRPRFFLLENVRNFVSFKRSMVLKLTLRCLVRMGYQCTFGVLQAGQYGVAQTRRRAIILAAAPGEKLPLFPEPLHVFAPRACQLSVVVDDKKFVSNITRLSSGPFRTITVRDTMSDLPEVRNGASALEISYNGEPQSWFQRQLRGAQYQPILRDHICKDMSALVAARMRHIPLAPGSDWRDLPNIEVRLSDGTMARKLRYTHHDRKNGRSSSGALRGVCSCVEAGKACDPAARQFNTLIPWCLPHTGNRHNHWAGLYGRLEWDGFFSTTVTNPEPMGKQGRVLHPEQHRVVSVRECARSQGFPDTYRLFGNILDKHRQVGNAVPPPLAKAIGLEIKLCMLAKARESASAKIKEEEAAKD
# Chain of DNA dC->dU-editing enzyme APOBEC-3G (Q9HC16 whole entry): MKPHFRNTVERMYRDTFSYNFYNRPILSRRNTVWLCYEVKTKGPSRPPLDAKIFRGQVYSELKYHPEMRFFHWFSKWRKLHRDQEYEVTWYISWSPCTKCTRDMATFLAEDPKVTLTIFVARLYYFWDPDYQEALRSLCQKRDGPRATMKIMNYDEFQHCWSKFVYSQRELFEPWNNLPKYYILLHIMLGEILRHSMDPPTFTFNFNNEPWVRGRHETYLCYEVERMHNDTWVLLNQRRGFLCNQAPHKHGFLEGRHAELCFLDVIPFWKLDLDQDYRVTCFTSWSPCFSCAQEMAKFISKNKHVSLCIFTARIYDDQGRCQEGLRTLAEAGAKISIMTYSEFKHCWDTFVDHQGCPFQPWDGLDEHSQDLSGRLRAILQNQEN
# Chain of Glycogen synthase kinase-3 beta (P49841 whole entry, the tested form may be a part): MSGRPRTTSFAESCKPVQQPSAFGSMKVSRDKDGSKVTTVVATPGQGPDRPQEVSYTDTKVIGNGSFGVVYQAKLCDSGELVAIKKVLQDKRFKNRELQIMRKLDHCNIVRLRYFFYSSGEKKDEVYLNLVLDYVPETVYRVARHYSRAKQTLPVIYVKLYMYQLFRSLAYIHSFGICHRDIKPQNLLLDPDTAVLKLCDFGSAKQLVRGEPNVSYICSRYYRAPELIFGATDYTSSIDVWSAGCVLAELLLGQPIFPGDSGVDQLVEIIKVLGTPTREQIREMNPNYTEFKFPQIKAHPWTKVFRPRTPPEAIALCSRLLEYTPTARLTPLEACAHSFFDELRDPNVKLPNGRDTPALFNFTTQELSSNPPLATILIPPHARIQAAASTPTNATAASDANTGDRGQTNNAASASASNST
# Chain of DNA dC->dU-editing enzyme APOBEC-3A (P31941 whole entry): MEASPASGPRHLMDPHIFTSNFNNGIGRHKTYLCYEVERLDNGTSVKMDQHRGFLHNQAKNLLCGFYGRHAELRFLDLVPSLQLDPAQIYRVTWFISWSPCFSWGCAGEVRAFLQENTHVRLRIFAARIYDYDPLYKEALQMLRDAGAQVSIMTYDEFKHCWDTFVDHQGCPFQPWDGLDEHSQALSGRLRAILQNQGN
# Chain of Glycogen synthase kinase-3 alpha (P49840 whole entry): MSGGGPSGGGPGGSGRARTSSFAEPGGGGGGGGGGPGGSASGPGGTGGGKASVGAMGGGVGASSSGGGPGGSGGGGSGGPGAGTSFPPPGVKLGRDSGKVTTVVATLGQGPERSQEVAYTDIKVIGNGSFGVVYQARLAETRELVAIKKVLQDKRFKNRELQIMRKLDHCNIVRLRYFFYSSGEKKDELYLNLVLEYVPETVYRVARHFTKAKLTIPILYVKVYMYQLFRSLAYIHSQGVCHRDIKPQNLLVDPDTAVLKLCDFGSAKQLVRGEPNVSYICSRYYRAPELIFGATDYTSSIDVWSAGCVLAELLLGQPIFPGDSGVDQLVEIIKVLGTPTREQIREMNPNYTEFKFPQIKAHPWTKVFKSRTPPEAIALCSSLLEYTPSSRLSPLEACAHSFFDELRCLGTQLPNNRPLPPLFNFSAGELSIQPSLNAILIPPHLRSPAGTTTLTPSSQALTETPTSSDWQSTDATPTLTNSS
structure (smiles),measurement,setting,value
CCCn1nc(NC(=O)C(C)C)c2cc3cc(OC)ccc3nc21,AC50,[1],38.5 µM (active)
same,AC50,[2],3.25 µM (active)
CCN(CC)c1ccc(NC(=O)CCS(=O)(=O)c2ccc(Br)cc2)c(C)c1,IC50,[3],3.04 µM (active)
same,IC50,[4],8.64 µM (active)
same,EC50,[5],5.01 µM (active)
same,EC50,[6],0.426 µM (active)
Nc1ccc2nc(-c3ccccc3)cnc2c1,IC50,CHO,> 49.7 µM (inactive)
Cc1ccc(S(=O)(=O)N(C)C[C@@H]2Oc3c(NC(=O)Nc4cccc5ccccc45)cccc3C(=O)N([C@@H](C)CO)C[C@H]2C)cc1,AC50,INS1 [7],69.6 µM (active)
same,AC50,INS1 [8],31.7 µM (active)
same,AC50,[9],32.7 µM (active)
same,AC50,INS1 [10],48.3 µM (active)
COc1cc2nc3n(c(=O)c2cc1OC)-c1cc2ccccc2cc1C(=O)NC3Cc1ccccc1 (centres undefined),AC50,DNA topoisomerase,11.8 µM (active)
Cc1cccc(-c2noc(/C=C/c3ccccc3)n2)c1,IC50,Caspase-3,11 µM (active)
same,IC50,[11],> 99 µM (inactive)
same,IC50,[12],4.9 µM (active)
same,IC50,[13],4.14 µM (active)
same,IC50,[14],3.48 µM (active)
same,IC50,[15],17 µM (active)
CCCCN1CCc2cc(/C=C3\C(=O)NC(=S)N(C4CCCCC4)C3=O)ccc21,IC50,[16],> 99 µM (inactive)
same,IC50,[17],> 99 µM (inactive)
O=C(CSc1nc2c(c(=O)[nH]1)CCCC2)NC1CCCCC1,CC50,[18],> 100 µM (active)
same,CC50,[19],> 100 µM (active)
same,CC50,[20],> 100 µM (active)
Cn1cc(C(=O)OCC2CCN(CCNS(C)(=O)=O)CC2)c2ccccc21,AC50,[21],35.5 µM (inconclusive)
